Results from ChEMBL document CHEMBL4414645, “Development of Robust 17(R),18(S)-Epoxyeicosatetraenoic Acid (17,18-EEQ) Analogues as Potential Clinical Antiarrhythmic Agents” (J Med Chem, 2019).
Active and inactive are the calls of the source. The calls are words filed in the database; no cut-off is given here.

Assays:
[1] = target: T1, Bifunctional epoxide hydrolase 2 (Homo sapiens) (UniProt P34913); test: Inhibition of N-terminal His-tagged recombinant human soluble epoxide hydrolase (2 to 555 residues) expressed in Sf21 insect cells at 10 uM using as 14,15-EET as substrate after 10 mins by reversed-phase HPLC assay relative to control
T1 sequence (whole entry): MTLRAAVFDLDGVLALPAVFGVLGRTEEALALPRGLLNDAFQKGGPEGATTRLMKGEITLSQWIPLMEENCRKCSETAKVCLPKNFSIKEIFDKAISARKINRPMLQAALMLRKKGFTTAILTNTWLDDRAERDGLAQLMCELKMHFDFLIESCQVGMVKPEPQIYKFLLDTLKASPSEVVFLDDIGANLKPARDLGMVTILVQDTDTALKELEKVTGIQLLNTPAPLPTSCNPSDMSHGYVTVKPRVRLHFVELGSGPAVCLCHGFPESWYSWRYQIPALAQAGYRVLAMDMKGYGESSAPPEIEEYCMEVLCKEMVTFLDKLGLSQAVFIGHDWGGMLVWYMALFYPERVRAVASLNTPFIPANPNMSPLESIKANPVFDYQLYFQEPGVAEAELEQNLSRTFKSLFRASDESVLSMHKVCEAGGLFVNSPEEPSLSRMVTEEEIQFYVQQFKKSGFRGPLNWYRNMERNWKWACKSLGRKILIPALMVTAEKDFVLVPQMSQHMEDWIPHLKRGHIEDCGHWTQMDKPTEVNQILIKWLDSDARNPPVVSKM

[2] = target: T1, Bifunctional epoxide hydrolase 2 (Homo sapiens); conditions: Sf21, at 1 µM
Description: Inhibition of N-terminal His-tagged recombinant human soluble epoxide hydrolase (2 to 555 residues) expressed in Sf21 insect cells at 1 uM using as 14,15-EET as substrate after 10 mins by reversed-phase HPLC assay relative to control

[3] = Aqueous solubility of the compound in pH 7.4 potassium phosphate buffer at 2 mg after 1 to 24 hrs by RP-HPLC method; type: physicochemical
[4] = Negative chronotropic activity in Wistar rat neonatal cardiomyocytes assessed as change in basal beating rate after 7 mins by inverted microscopic method; type: functional
[5] = Stability in human plasma assessed as compound remaining at 10 uM measured up to 60 mins by LC-ESI-MS/MS analysis; type: ADME, cell-free; conditions: read-out: Stability
[6] = target: T2, Epoxide hydrolase 1/Bifunctional epoxide hydrolase 2 (Homo sapiens, UniProt P07099+P34913); test: Drug metabolism in human liver microsomes assessed as microsomal/soluble epoxide hydrolase mediated formation of [+O + H2O] metabolites at 1 uM after 60 mins in absence of NADPH by LC-MS analysis; type: ADME; conditions: 1 h
T2 sequence (P07099 whole entry): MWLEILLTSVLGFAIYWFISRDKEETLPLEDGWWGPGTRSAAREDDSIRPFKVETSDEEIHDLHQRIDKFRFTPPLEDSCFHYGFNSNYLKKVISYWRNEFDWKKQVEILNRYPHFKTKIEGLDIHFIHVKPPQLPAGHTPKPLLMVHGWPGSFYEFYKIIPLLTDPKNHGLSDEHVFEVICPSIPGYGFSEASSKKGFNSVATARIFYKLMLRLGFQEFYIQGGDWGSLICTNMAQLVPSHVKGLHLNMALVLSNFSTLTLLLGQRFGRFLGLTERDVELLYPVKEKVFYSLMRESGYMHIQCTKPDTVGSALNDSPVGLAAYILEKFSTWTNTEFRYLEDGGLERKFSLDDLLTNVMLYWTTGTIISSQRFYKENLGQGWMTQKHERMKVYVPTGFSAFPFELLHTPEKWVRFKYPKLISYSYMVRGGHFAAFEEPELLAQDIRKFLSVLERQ
T2 sequence (P34913 whole entry): T1 sequence (whole entry)

Cytochrome P450 [7] = test: Drug metabolism in human liver microsomes assessed as CYP450-mediated formation of [+O] metabolites at 1 uM after 60 mins in presence of NADPH by LC-MS analysis; type: ADME; conditions: 1 h
Cytochrome P450 [8] = test: Drug metabolism in human liver microsomes assessed as CYP450-mediated formation of [+O] metabolites at 1 uM after 60 mins in absence of NADPH by LC-MS analysis; type: ADME; conditions: 1 h
[9] = target: T2, Epoxide hydrolase 1/Bifunctional epoxide hydrolase 2; test: Drug metabolism in human liver microsomes assessed as microsomal/soluble epoxide hydrolase mediated formation of [+O + H2O] metabolites at 1 uM after 60 mins in presence of NADPH by LC-MS analysis; type: ADME; conditions: 1 h
[10] = Half life in human hepatocytes at 1 uM measured up to 180 mins by LC-ESI-MS/MS analysis; type: ADME, cell-based, Hepatocyte
[11] = Intrinsic clearance in human hepatocytes assessed per million cells at 1 uM measured up to 180 mins by LC-ESI-MS/MS analysis; type: ADME, cell-based, Hepatocyte; conditions: read-out: CLH
[12] = Apparent permeability across basolateral to apical side in human Caco2 cells at 10 uM after 15 to 90 mins by LC-ESI-MS/MS analysis; type: ADME, cell-based; conditions: Caco-2
[13] = Apparent permeability across apical to basolateral side in human Caco2 cells at 10 uM after 15 to 90 mins by LC-ESI-MS/MS analysis; type: ADME, cell-based; conditions: Caco-2
Rattus norvegicus [14] = test: Antiarrhythmic activity in Wistar rat model of coronary artery ligation-induced myocardial infarction assessed as reduction in total time on development of ventricular tachycardia at 100 ug, iv administered via bolus pretreated for 10 mins followed by coronary artery ligation measured for 45 mins; type: functional, organism-based
Rattus norvegicus [15] = test: Antiarrhythmic activity in Wistar rat model of coronary artery ligation-induced myocardial infarction assessed as reduction in disease severity score at 100 ug, iv administered via bolus pretreated for 10 mins followed by left anterior descending artery occlusion measured for 45 mins; type: functional, organism-based
Cytochrome P450 2J2 = target: T3, Cytochrome P450 2J2 (Homo sapiens, UniProt P51589); test: Inhibition of recombinant human CYP2J2 expressed in baculovirus infected insect cells co-expressing NADPH-CYP reductase and cytochrome b5 assessed as reduction in CYP2J2-mediated EPA epoxidation by measuring sum of EEQ and DiHETEs level at 1 to 50 uM using EPA as substrate preincubated for 5 mins followed by NADPH addition and measured after 15 mins by LCMS/MS analysis; type: ADME; conditions: recombinant enzyme, 0.25 h
T3 sequence (P51589 whole entry): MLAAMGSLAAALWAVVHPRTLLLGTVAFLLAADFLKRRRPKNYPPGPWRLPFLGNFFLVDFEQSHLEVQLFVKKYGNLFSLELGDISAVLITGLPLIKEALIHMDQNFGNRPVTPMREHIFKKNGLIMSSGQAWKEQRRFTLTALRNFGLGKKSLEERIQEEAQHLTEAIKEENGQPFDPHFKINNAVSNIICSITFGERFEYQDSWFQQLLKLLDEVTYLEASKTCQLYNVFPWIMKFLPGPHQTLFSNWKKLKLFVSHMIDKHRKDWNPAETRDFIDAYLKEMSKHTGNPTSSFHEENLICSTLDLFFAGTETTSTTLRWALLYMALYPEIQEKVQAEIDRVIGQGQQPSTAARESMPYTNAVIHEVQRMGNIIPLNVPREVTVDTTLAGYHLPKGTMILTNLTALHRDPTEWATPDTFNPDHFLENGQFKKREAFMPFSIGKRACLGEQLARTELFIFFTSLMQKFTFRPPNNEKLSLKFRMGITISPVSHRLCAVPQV

[16] = Negative chronotropic activity in Wistar rat neonatal cardiomyocytes assessed as changes to basal beating rate after 7 mins by inverted microscopic method; type: functional
[17] = Negative chronotropic activity in Wistar rat neonatal cardiomyocytes assessed as decrease in basal beating rate after 7 mins by inverted microscopic method; type: functional, cell-based

SMILES | inhibition [1] [%] | inhibition [2] [%] | Activity [4] [bpm] | further results
CCNC(=O)NCCCC/C=C\CCCCCCCCCC(=O)OCCOCCOCCO | 76.6 | 26.5 | -19.8 | solubility [3]: Soluble
CNC(=O)C(=O)NCCCC/C=C\CCCCCCCCCSc1ccccc1O | 1.5 | 0.4 | -7.5 | –
CC(C)[N+](C)(CCOC(=O)C1c2ccccc2Oc2ccccc21)C(C)C [PROPANTHELINE BROMIDE] | – | – | – | remaining at 1 h, 10 µM [5]: 2.6%
CCNC(=O)NCCCC/C=C\CCCCCCCCCC(=O)O | 23.4 | 4.7 | – | –
CCNC(=O)NCCCC/C=C\CCCCCCCOCC(=O)O | 10.4 | 3.6 | -38 | –
CNC(=O)C(=O)NCCCC/C=C\CCCCCCCCCC(=O)N[C@@H](C)C(=O)[O-].[Na+] | 18.7 | 1.9 | -1.1 | –
CCNC(=O)NCCCC/C=C\CCCCCCCCCC(=O)NCC(=O)[O-].[Na+] | 19.2 | 0.9 | -21.1 | solubility [3]: Soluble
CNC(=O)C(=O)NCCCC/C=C\CCCCCCCCCP(=O)(OC)OCOC(=O)C(C)(C)C (configuration not stated) | 18.6 | 5.4 | -16.2 | –
CCCCCCCC/C=C\CCCCCCCC(=O)O [OLEIC ACID] | – | – | – | Drug metabolism [6]: Metabolite_Notdetected; Drug metabolism (Cytochrome P450 [7]): Metabolite_Detected; Drug metabolism (Cytochrome P450 [8]): Metabolite_Notdetected; Drug metabolism [9]: Metabolite_Detected
CNC(=O)C(=O)NCCCC/C=C\CCCCCCCCCS(=O)(=O)[O-].[Na+] | 0 | 5.2 | -20.7 | –
CCOc1ccc2ccc(=O)oc2c1 [ETHOXYCOUMARIN] | – | – | – | half-life at 1 µM [10]: 20.5 min; hepatocyte CLint at 1 µM [11]: 43.2 µL/min/1e6 cells
C[C@]12CC[C@H]3[C@@H](CCC4=CC(=O)CC[C@@]43C)[C@@H]1CC[C@@H]2O [TESTOSTERONE] | – | – | – | Papp B→A at 10 µM [12]: 58.9 ×10⁻⁶ cm/s; Papp A→B at 10 µM [13]: 32.5 ×10⁻⁶ cm/s
CNC(=O)C(=O)NCCCCc1ccccc1CCCCCCCCCP(=O)([O-])[O-].[Na+].[Na+] | 1.8 | 1.3 | -21.8 | –
CNC(=O)C(=O)NCCCC/C=C\CCCCCCCOCC(=O)OCCOCCOCCO | 1.9 | 1.3 | -25.2 | Activity (Rattus norvegicus [14]): Active; solubility [3]: Soluble; Activity (Rattus norvegicus [15]): Active
CNC(=O)C(=O)NCCCc1ccccc1CCCCCCP(=O)([O-])[O-].[Na+].[Na+] | -2.2 | -1 | -24.5 | –
CNC(=O)C(=O)NCCCC/C=C\CCCCCCCCCP(=O)(OCOC(=O)C(C)(C)C)OCOC(=O)C(C)(C)C | 38.4 | 5.1 | -23.5 | –
CCCCc1oc2ccc(NS(C)(=O)=O)cc2c1C(=O)c1ccc(OCCCN(CCCC)CCCC)cc1 [DRONEDARONE] | – | – | – | inhibition (INH) (Cytochrome P450 2J2): Active
CNC(=O)C(=O)NCCCC/C=C\CCCCCCCCCc1noc(=O)[nH]1 | -9.2 | -5 | -11 | –
CNC(=O)C(=O)NCCCC/C=C\CCCCCCCCCC(=O)N(C)CC(=O)[O-].[Na+] | 17.8 | -0.6 | -15.6 | –
CC[C@@H]1O[C@@H]1C/C=C\C/C=C\C/C=C\C/C=C\CCCC(=O)O | – | – | – | Emax [16]: 28.9 bpm; EC50 [17]: 12 nM
CC[C@H]1OC(=O)[C@H](C)[C@@H](O[C@H]2C[C@@](C)(OC)[C@@H](O)[C@H](C)O2)[C@H](C)[C@@H](O[C@@H]2O[C@H](C)C[C@H](N(C)C)[C@H]2O)[C@](C)(O)C[C@@H](C)C(=O)[C@H](C)[C@@H](O)[C@]1(C)O [ERYTHROMYCIN] | – | – | – | Papp B→A at 10 µM [12]: 10.4 ×10⁻⁶ cm/s; Papp A→B at 10 µM [13]: 0.35 ×10⁻⁶ cm/s
CC(C)(C)c1ccc(C(O)CCCN2CCC(C(O)(c3ccccc3)c3ccccc3)CC2)cc1 (configuration not stated) [TERFENADINE] | – | – | – | inhibition (INH) (Cytochrome P450 2J2): Active
CCCCc1oc2ccccc2c1C(=O)c1cc(I)c(OCCN(CC)CC)c(I)c1 [AMIODARONE] | – | – | – | inhibition (INH) (Cytochrome P450 2J2): Active
CNC(=O)C(=O)NCCCC/C=C\CCCCCCCCCP(=O)([O-])[O-].[Na+].[Na+] | 37.7 | 6.8 | -21.3 | –
CNC(=O)C(=O)NCCCC/C=C\CCCCCCCCCP(=O)(OC)OC | 6.4 | 5 | -18 | –
CNC(=O)C(=O)NCCCC/C=C\CCCCCCCCCC1=NO[S+]([O-])N1 (configuration not stated) | 10 | -0.2 | -24.3 | –
CNC(=O)C(=O)NCCCC/C=C\CCCCCCCCCC(=O)NS(=O)(=O)c1ccccc1 | 1.1 | -3.2 | -23.1 | –
CNC(=O)C(=O)NCCCC/C=C\CCCCCCCCCOc1cccc2sc(NC(C)=O)nc12 | 61.8 | 17 | -21.1 | –
